Source: patent publication US12528767B2, “HDAC6 inhibitors and uses thereof” (Eikonizo Therapeutics, Inc., priority 2019, dated 2026)
Where two headings read alike, the source gives them in different places. Values belong to the molecule of their own block, whether it stands above or below them.

How the values were obtained:
Human HDAC7 aa 518-end = molecular target: T1, Human HDAC7 aa 518-end (Homo sapiens, UniProt Q8WUI4)
T1 sequence (Q8WUI4 518-952 limits assumed): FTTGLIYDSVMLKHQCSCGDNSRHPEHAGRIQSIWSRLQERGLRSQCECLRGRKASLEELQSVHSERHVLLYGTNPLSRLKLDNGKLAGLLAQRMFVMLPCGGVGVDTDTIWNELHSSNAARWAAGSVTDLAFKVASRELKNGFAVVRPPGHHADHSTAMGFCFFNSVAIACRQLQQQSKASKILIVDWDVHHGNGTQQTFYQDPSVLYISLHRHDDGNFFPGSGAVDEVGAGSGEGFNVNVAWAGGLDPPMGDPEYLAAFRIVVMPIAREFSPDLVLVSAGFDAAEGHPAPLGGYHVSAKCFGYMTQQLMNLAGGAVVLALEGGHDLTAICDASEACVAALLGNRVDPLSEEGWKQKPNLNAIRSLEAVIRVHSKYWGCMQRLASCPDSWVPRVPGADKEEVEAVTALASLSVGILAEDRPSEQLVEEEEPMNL

Full length Human HDAC6 = molecular target: T2, Full length Human HDAC6 (Homo sapiens, UniProt Q9UBN7); conditions: for Selectivity (6 v 8) (fold): ratio of HDAC8 IC50/HDAC6 IC50
T2 sequence (Q9UBN7 1-1215): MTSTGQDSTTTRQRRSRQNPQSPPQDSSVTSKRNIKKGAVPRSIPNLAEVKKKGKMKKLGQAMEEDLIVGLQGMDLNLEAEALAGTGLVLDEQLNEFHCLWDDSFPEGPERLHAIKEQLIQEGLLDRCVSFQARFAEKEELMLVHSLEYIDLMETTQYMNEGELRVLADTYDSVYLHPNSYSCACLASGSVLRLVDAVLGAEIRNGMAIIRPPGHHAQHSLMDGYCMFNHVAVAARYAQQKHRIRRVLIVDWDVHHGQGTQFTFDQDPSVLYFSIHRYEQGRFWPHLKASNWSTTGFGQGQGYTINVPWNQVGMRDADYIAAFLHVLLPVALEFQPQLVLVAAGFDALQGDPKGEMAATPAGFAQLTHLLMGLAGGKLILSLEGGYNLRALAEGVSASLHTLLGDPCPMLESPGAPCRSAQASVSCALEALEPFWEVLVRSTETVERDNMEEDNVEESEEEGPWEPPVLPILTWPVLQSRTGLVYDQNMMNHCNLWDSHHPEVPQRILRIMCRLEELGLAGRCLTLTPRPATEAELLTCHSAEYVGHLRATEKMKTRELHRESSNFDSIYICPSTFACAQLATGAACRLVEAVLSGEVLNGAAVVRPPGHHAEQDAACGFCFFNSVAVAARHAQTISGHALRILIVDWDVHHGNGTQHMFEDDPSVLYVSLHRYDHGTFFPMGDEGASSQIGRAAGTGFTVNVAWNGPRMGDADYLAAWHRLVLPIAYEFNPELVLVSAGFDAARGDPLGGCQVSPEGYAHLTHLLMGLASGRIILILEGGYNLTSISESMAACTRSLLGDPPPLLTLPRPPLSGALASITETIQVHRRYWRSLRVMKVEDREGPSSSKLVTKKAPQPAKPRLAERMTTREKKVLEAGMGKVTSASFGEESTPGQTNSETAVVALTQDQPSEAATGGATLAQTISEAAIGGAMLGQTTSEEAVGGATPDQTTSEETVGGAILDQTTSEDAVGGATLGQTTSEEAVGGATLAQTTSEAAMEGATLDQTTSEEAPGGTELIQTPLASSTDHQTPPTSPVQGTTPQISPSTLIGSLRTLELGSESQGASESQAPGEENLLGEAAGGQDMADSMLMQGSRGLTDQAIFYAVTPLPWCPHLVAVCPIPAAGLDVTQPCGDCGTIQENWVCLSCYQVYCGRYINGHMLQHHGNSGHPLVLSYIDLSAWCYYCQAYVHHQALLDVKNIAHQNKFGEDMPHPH

Full length Human HDAC10 = molecular target: T3, Full length Human HDAC10 (Homo sapiens, UniProt Q969S8)
T3 sequence (Q969S8 1-669): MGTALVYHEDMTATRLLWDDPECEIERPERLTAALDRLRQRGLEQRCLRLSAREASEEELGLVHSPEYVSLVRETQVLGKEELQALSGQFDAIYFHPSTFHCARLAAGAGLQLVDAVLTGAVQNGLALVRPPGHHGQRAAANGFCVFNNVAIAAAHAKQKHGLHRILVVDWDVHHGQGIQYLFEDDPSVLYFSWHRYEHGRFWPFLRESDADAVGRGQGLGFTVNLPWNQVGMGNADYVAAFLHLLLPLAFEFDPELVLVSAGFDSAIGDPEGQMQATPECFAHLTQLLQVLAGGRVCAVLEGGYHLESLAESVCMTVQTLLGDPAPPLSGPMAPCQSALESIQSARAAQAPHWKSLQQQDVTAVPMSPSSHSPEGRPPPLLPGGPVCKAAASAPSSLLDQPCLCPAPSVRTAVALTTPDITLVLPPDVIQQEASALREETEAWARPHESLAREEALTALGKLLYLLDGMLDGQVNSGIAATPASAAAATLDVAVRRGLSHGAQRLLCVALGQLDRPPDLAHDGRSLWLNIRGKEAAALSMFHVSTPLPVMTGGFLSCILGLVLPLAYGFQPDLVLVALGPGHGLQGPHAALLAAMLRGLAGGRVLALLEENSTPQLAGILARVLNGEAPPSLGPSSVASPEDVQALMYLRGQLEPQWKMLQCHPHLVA

[1] = Metabolic stability in liver microsomes: Mouse CD1; type: in vitro ADME; conditions: 1 μM compound, 0.3 mg/mL protein, NADPH, 37° C., read-out: Mouse CD1 Liver Microsome Stability Half-life
Full length Human HDAC8 = molecular target: T4, Full length Human HDAC8 (Homo sapiens, UniProt Q9BY41)
T4 sequence (Q9BY41 1-377): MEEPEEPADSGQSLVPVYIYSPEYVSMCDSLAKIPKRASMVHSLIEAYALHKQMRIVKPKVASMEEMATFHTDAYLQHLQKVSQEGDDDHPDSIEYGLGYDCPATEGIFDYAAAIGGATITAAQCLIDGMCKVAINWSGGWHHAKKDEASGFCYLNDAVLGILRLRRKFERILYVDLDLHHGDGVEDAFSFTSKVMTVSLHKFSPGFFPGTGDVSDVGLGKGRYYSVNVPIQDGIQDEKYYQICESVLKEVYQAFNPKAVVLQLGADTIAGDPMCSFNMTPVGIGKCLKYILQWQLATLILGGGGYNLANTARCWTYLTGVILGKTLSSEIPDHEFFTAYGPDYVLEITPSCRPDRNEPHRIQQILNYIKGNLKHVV

[2] = Cell viability in primary rat dorsal root ganglia (DRG); type: cell-based
in vitro [3] = conditions: human
in vitro [4] = conditions: human; remark: listed apart in the source
[5] = test system: histone H3 acetylation (acH3K9) in undifferentiated SH-SY5Y cells; experiment: Histone H3 acetylation in cells (Western immunoblot); type: cell-based; conditions: Homo sapiens, 4 hours, acetyl histone H3K9/histone H3 ratio
Method: (§1) Compound EC50 Determination for Tubulin- and Histone H3 Acetylation in Cells
(§2) Estimation of the EC50 for exemplary compounds to alter target protein acetylation in undifferentiated SH-SY5Y cells was performed using standard Western immunoblotting methods. […] SH-SY5Y cells were grown to 90% confluency on sterile cell growth plates. 10 mM compound stocks prepared in DMSO and two-fold serial dilutions were prepared from the stock and applied to cells to achieve a 12-point concentration range in cell media from an upper limit of 10 μM to a lower limit of DMSO [zero compound].
(§3) Cells were incubated under normal growth conditions (37° C., 5% CO2) in the presence of compound for 4 hours, then media was aspirated and cells were rinsed two times with 1×DPBS with calcium and magnesium warmed to 37° C. Cells were frozen directly on the plates on a bed of dry ice for 5 min, then stored at −80° C. until protein extraction.
(§4) Protein extraction was performed in RIPA buffer (50 mM Tris-HCL pH 8.0, 150 mM NaCl, 0.5% sodium deoxycholate, 0.1% sodium dodecyl sulfate, 1% NP-40) supplemented with Pierce protease inhibitor mini tables (Thermofisher cat #A32953) exactly as described by the manufacturer. After thawing the plate on a bed of wet ice for 10 minutes, lysis buffer was added to each well (e.g. 100 μL per well of a 24-well plate) and cells scraped from the bottom of each well. Lysates were then sonicated over ice (40% power, 30 pulses of 1 second on, 2 seconds off), centrifuged at 16,000 g for 10 min at 4° C., and the clarified supernatant saved. Protein concentration was determined by BCA assay and at least 3 μg prepared per lane by combining lysate supernatant aliquot with 1/3 total volume of 3× gel loading buffer containing DTT (NEB Cat. #B7703S), heating for 5 minutes at 95° C., briefly centrifuging and then loading on an SDS-PAGE gel.
(§5) Proteins were resolved on a 4-20% Tris-Glycine gel and transferred to PVDF membrane using an iBlot2 dry transfer system. The membrane was then blocked for at least 30 minutes at room temperature in TBST containing 5% milk or 5% bovine serum albumin, then incubated overnight at 4° C. with a single primary antibody from the following table:
(§6) Following primary antibody incubation, membranes were washed, incubated in secondary antibody, washed and incubated in ECL prime western blotting detection reagent (Amersham #RPN223) with membrane exposure and ECL signal capture in a LI-COR Odyssey Imaging system. […] Subsequent densitometry of immunoreactive bands was performed using the ImageStudio software and Microsoft Excel resulting in the following ratios: acetylTubulin/Tubulin and acetyl histone H3K9/histone H3. Raw ratios were uploaded to GraphPad Prism v7.0 with EC50 values modeled using the variable slope equation for log-transformed data [log(agonist) vs response in Prism].

[6] = In vivo assessment of brain penetration in mice (IV 1 mg/kg, plasma and brain levels); conditions: mouse, BL/6 mice
[7] = Plasma protein binding assay (Rapid Equilibrium Dialysis): mouse; type: in vitro ADME; parameters: dose or concentration left out as unconfirmed; conditions: pH 7.4, RED, 5 hours at 37° C.
[8] = Metabolic stability in liver microsomes: Mouse BL6; type: in vitro ADME; conditions: 1 μM compound, 0.3 mg/mL protein, NADPH, 37° C., read-out: Mouse BL6 Liver Microsome Stability Half-life
[9] = Plasma stability assay: mouse; type: in vitro ADME; conditions: 10 μM, 37° C.
[10] = test system: tubulin acetylation (acTubK40) in undifferentiated SH-SY5Y cells; experiment: Tubulin acetylation in cells (Western immunoblot); type: cell-based; conditions: Homo sapiens, 4 hours, acetylTubulin/Tubulin ratio
Method: as §1, §2, §3, §4, §5, §6

IC50 (Human HDAC7 aa 518-end): 1 to 10 µM | IC50 (Full length Human HDAC6): 0.001 to 0.1 µM | Selectivity (6 v 8) (fold) (Full length Human HDAC6; Table 1, number): 291.4 fold | Selectivity (6 v 8) (fold) (Full length Human HDAC6; Table 1, range class): IV (IV: >100-1000) | IC50 (Full length Human HDAC6; read-out: In vitro enzymatic IC50, HDAC Paralog 6, Table 2): 0.001 to 0.1 µM | IC50 (Full length Human HDAC10): 10 to 100 µM | half-life at 1 μM [1]: 7.1 min | IC50 (Full length Human HDAC8): 1 to 10 µM | IC50 (Full length Human HDAC8; read-out: In vitro enzymatic IC50, HDAC Paralog 8, Table 2): 1 to 10 µM
Structure (SMILES): O=C(NO)c1cc(F)c2c(c1)CN(CC13CC4CC(CC(C4)C1)C3)C2 [compound 33]

Structure (SMILES): O=C(CCCCCCC(=O)Nc1ccccc1)NO [Vorinostat]
CC50 at 72 h [2]: 0.39 µM | viability at 48 h, 30 µM (in vitro [3]): 40.3 ± 1.8% | viability at 4 h, 30 µM (in vitro [4]): 117 ± 7.5%

EC50 [5]: > 10 µM | concentration at 15 min ([6]; brain, 15 min, read-out: Mouse Brain Conc (μM) at 15 min): 0.15 µM | concentration at 60 min ([6]; brain, 60 min, read-out: Mouse Brain Conc (μM) at 60 min): 0.03 µM | concentration at 15 min ([6]; plasma, 15 min, read-out: Mouse Plasma Conc (μM) at 15 min): 0.21 µM | concentration at 60 min ([6]; plasma, 60 min, read-out: Mouse Plasma Conc (μM) at 60 min): 0.05 µM | Kp at 15 min ([6]; brain and plasma, brain:plasma, 15 min, read-out: Mouse B:P at 15 min): 0.72 | Kp at 60 min ([6]; brain and plasma, brain:plasma, 60 min, read-out: Mouse B:P at 60 min): 0.6 | fraction unbound at 5 h [7]: 0.062 | IC50 (Full length Human HDAC6): 0.001 to 0.1 µM | Selectivity (6 v 8) (fold) (Full length Human HDAC6; Table 1, number): 51 fold | Selectivity (6 v 8) (fold) (Full length Human HDAC6; Table 1, range class): III (III: >10-100) | half-life at 1 μM [8]: 78.5 min | Mouse Plasma Stability (% Remaining at 120 min) [9]: 43.8% | IC50 (Full length Human HDAC8): 0.1 to 1 µM | EC50 [10]: 0.1 µM
Structure (SMILES): O=C(NO)c1ccc(CN2CCc3c([nH]c4ccccc34)C2)c(F)c1 [compound 46]
